Legend:
[1] = tested on: Sinapis alba, Echinochloa crus-galli, Lolium multiflorum, Chrysanthemum segetum, Setaria viridis, Abutilon theophrasti, Amaranthus retroflexus, Panicum …; test: Post-emergence action against weeds (greenhouse pot test, visual scoring); assay type: in vivo, monocotyledonous and dicotyledonous weeds; conditions: post-emergence method, three-leaf stage; 500 g or less of herbicide (A) per hectare; herbicide/safener combination with safeners II-1, II-9, III-1, b-11, b-14, IX-A3; scored after about three to four weeks
Protocol: Seeds or rhizome pieces of monocotyledonous and dicotyledonous weeds were placed into sandy loam soil in plastic pots, covered with soil and grown in a greenhouse under good growth conditions. Three weeks after sowing, the test plants were treated at the three-leaf stage. The compounds according to the invention, formulated as wettable powders or as emulsion concentrates, were sprayed onto the green parts of the plants at various dosages using a water application rate of 300 to 800 I/ha (converted). The test plants were stood in the greenhouse under optimum growth conditions for about three to four weeks, and the action of the preparations was then scored visually in comparison to untreated controls. Post-emergence, too, the herbicide/safener combinations according to the invention have good herbicidal activity against a broad spectrum of economically important weed grasses and broad-leaved weeds.

[2] = tested on: cotton, oilseed rape, sugar beet and Gramineae crops such as barley, wheat, rye, millet, corn or rice; test: Compatibility with crop plants (greenhouse, visual scoring); assay type: in vivo; conditions: pre-emergence method or post-emergence method; herbicide/safener combination with safeners II-1, II-9, III-1, b-11, b-14, IX-A3; four to five weeks after application
Excerpt: In further greenhouse trials, seeds of a relatively large number of crop plants and weeds were placed into sandy loam soil and covered with soil. Some of the pots were immediately treated as described in Section 1, the others were placed in a greenhouse until the plants had developed two to three true leaves and were then sprayed with various dosages of the herbicide/safener combinations according to the invention, as described in Section 2.

[3] = tested on: Sinapis alba, Chrysanthemum segetum, Avena sativa, Stellaria media, Echinochloa crus-galli, Lolium multiflorum, Setaria viridis, Abutilon theophrasti …; test: Pre-emergence action against weeds (greenhouse pot test, optical scoring); assay type: in vivo, monocotyledonous and dicotyledonous weed plants; conditions: pre-emergence method; 500 g or less of herbicide (A) per hectare; herbicide/safener combination with safeners II-1, II-9, III-1, b-11, b-14, IX-A3; scored after 3 to 4 weeks
Excerpt: Seeds or rhizome pieces of monocotyledonous and dicotyledonous weed plants were placed in sandy loam soil in cardboard pots and covered with soil. The active compounds (A) and (B), formulated in the form of wettable powders or emulsion concentrates, were then applied to the surface of the covering soil in various dosages as aqueous suspensions or emulsions using a water application rate of 300 to 800 I/ha (converted).
After the treatment, the pots were placed in a greenhouse and kept under good growth conditions for the weeds. Optical scoring of the damage to the plants or emerged plants was carried out after emergence of the test plants after a trial period of 3 to 4 weeks, in comparison to untreated controls. As shown by the results, the tested herbicide/safener combinations have good herbicidal pre-emergence activity against a broad spectrum of weed grasses and broad-leaved weeds.

| melting point [°C] | Compound | herbicidal activity against harmful plants (visual scoring vs untreated controls) [1] | damage to crop plants (visual scoring) [2] | herbicidal activity against harmful plants (optical scoring of damage vs untreated controls) [3] |
| --- | --- | --- | --- | --- |
|  | Cn1nc(C(F)(F)F)c(CS(=O)(=O)C2=NOC(C)(C)C2)c1Cl [I-77.1] | very good herbicidal activity | did not cause any damage | very good herbicidal activity |
|  | CC1(C)CC(S(=O)(=O)Cc2cccc3c2OC(F)(F)C(F)(F)O3)=NO1 [I-22.1] | very good herbicidal activity | did not cause any damage | very good herbicidal activity |
|  | CCC1(C)CC(S(=O)(=O)Cc2cc3c(cc2Cl)OCO3)=NO1 (stereo not shown) [I-52.2] | very good herbicidal activity | did not cause any damage | very good herbicidal activity |
|  | CCC1(C)CC(S(=O)(=O)Cc2cccc3c2OCCO3)=NO1 (stereo not shown) [I-21.2] | very good herbicidal activity | did not cause any damage | very good herbicidal activity |
|  | CCC1(C)CC(S(=O)(=O)Cc2c(F)cccc2F)=NO1 (stereo not shown) [I-3.2] | very good herbicidal activity | did not cause any damage | very good herbicidal activity |
|  | CCC1(C)CC(S(=O)(=O)Cc2cccc3c2OC(F)(F)O3)=NO1 (stereo not shown) [I-23.2] | very good herbicidal activity | did not cause any damage | very good herbicidal activity |
|  | CCC1(C)CC(S(=O)(=O)Cc2cccc3c2OC(F)(F)C(F)(F)O3)=NO1 (stereo not shown) [I-22.2] | very good herbicidal activity | did not cause any damage | very good herbicidal activity |
| 170 | CC1(C)CC(S(=O)(=O)Cc2cc3c(cc2Cl)OCO3)=NO1 [I-52.1, 3-{[(6-Chloro-1,3-benzodioxol-5-yl)methyl]sulfonyl}-5,5-dimethyl-4,5-dihydroisoxazole] | very good herbicidal activity | did not cause any damage | very good herbicidal activity |
|  | CCC1(C)CC(S(=O)(=O)Cc2cccc3c2OCC3)=NO1 (stereo not shown) [I-24.2] | very good herbicidal activity | did not cause any damage | very good herbicidal activity |
|  | CCC1(C)CC(S(=O)(=O)Cc2cc(F)ccc2F)=NO1 (stereo not shown) [I-2.2] | very good herbicidal activity | did not cause any damage | very good herbicidal activity |
|  | CC1(C)CC(S(=O)(=O)Cc2cccc3c2OC(F)(F)O3)=NO1 [I-23.1] | very good herbicidal activity | did not cause any damage | very good herbicidal activity |
|  | CC1(C)CC(S(=O)(=O)Cc2c(F)cccc2F)=NO1 [I-3.1] | very good herbicidal activity | did not cause any damage | very good herbicidal activity |
|  | Cn1nc(C(F)(F)F)c(CS(=O)(=O)C2=NOC(C)(C)C2)c1OC(F)F [I-67.1] | very good herbicidal activity | did not cause any damage | very good herbicidal activity |
|  | CC1(C)CC(S(=O)(=O)Cc2cccc3c2OCC3)=NO1 [I-24.1] | very good herbicidal activity | did not cause any damage | very good herbicidal activity |
|  | CCC1(C)CC(S(=O)(=O)Cc2c(C(F)(F)F)nn(C)c2OC(F)F)=NO1 (stereo not shown) [I-67.2] | very good herbicidal activity | did not cause any damage | very good herbicidal activity |
|  | CC1(C)CC(S(=O)(=O)Cc2cccc3c2OCCO3)=NO1 [I-21.1] | very good herbicidal activity | did not cause any damage | very good herbicidal activity |

From patent publication US20070015662A1, “Herbicide/safener combination” (Bayer CropScience GmbH, priority 2005, published 2007)
